From patent publication US20250230193A1, “CYCLIC COMPOUND HAVING SELECTIVE KRAS INHIBITORY EFFECT ON HRAS AND NRAS” (CHUGAI SEIYAKU KABUSHIKI KAISHA, priority 2022, published 2025)
Where a SMILES comes first, the peptide text is derived from it. Bridges are numbered along the chain shown (N, C = ends). [ ]: non-standard residue; d: D form. The star is where a group is joined. hPhe(3-Cl-4-CF3) = N[C@@H](CCc1ccc(C(F)(F)F)c(Cl)c1)C(=O)O; NPrPhe(4-CF3) = CCCN[C@@H](Cc1ccc(C(F)(F)F)cc1)C(=O)O; NMeGly(cPent) = CN[C@H](C(=O)O)C1CCCC1; NMeD = CN[C@@H](CC(=O)O)C(=O)O; NMeL = CN[C@@H](CC(C)C)C(=O)O; Piperidide = C1CCN(*)CC1; Ac5c = NC1(C(=O)O)CCCC1; Sar = CNCC(=O)O

How the values were obtained:
[1] = biological target: GDP-bound NRAS wild-type protein (Homo sapiens, UniProt P01111); assay: Binding to NRAS by surface plasmon resonance (SPR), Single Cycle Kinetics; settings: SPR; for NRAS/KRAS (ratio of KD value with respect to NRAS to KD value with respect to KRAS) / NRAS/KRAS (ratio of KD value for NRAS to KD value for KRAS): GDP-bound NRAS wild-type vs GDP-bound KRAS wild-type
GDP-bound NRAS wild-type protein, sequence (P01111 whole entry): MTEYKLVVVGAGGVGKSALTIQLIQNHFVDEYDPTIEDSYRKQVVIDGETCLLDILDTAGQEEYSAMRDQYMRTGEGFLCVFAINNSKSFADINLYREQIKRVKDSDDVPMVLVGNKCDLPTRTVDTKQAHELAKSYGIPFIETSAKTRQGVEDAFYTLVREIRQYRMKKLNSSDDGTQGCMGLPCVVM

[2] = biological target: GDP-bound HRAS wild-type protein (Homo sapiens, UniProt P01112); assay: Binding to HRAS by surface plasmon resonance (SPR), Single Cycle Kinetics; settings: SPR; for HRAS/KRAS (ratio of KD value with respect to HRAS to KD value with respect to KRAS) / HRAS/KRAS (ratio of KD value for HRAS to KD value for KRAS): GDP-bound HRAS wild-type vs GDP-bound KRAS wild-type
GDP-bound HRAS wild-type protein, sequence (P01112 whole entry): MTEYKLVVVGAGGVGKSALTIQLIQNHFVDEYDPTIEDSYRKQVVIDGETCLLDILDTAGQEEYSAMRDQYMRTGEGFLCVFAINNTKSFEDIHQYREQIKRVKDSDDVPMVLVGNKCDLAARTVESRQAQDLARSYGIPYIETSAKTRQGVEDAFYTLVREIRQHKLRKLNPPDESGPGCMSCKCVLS

CC[C@H](C)[C@@H]1NC(=O)[C@H](CC(C)C)N(C)C(=O)C[C@@H](C(=O)N2CCOCC2)N(C)C(=O)[C@H](C2CCCC2)N(C)C(=O)C2(CCCC2)NC(=O)[C@@H]2[C@@H](O)CCN2C(=O)[C@H](CCc2cc(F)c(C(F)(F)F)c(F)c2)NC(=O)CN(C)C(=O)[C@H](Cc2ccc(C(F)(F)F)cc2)N2CCCC[C@@H](C2=O)N(C)C(=O)CN(C)C1=O [PP0558]
NRAS/KRAS (ratio of KD value with respect to GDP-bound NRAS wild-type protein to KD value with respect to KRAS) ([1]; KD ratio NRAS/KRAS): B (a compound having 3 or more and less than 10 is denoted as B) | HRAS/KRAS (ratio of KD value with respect to GDP-bound HRAS wild-type protein to KD value with respect to KRAS) ([2]; KD ratio HRAS/KRAS): B (a compound having 3 or more and less than 10 is denoted as B)

CC[C@H](C)[C@@H]1NC(=O)[C@@H]2CCCCCCc3ccc(cc3)C[C@@H](C(=O)N(C)CC(=O)N[C@@H](CCc3ccc(C(F)(F)F)c(OC)c3)C(=O)N3CC4(CC4)C[C@H]3C(=O)NC3(CC(C)(C)C3)C(=O)N(C)[C@@H](C3CCCC3)C(=O)N(C)[C@H](C(=O)N(C)C)CC(=O)N2C)N2CC/C=C\C[C@@H](C2=O)N(C)C(=O)CN(C)C1=O [PP3069]
NRAS/KRAS (ratio of KD value with respect to GDP-bound NRAS wild-type protein to KD value with respect to KRAS) ([1]; KD ratio NRAS/KRAS, GDP-bound wild-type proteins): A (a compound having 10 or more and less than 20 is denoted as A) | HRAS/KRAS (ratio of KD value with respect to GDP-bound HRAS wild-type protein to KD value with respect to KRAS) ([2]; KD ratio HRAS/KRAS, GDP-bound wild-type proteins): B (a compound having 3 or more and less than 10 is denoted as B)

CC[C@H](C)[C@@H]1NC(=O)[C@H](COC)N(C)C(=O)C[C@@H](C(=O)N2CCOCC2)N(C)C(=O)[C@H](C2CCCC2)N(C)C(=O)C2(CCC2)NC(=O)[C@@H]2C[C@@H](OCC(C)C)CN2C(=O)[C@H](CCc2cc(F)c(C(F)(F)F)c(F)c2)NC(=O)CN(C)C(=O)[C@H](Cc2ccc(C(F)(F)F)cc2)N2CCCCC[C@@H](C2=O)N(C)C(=O)CN(C)C1=O [PP0839]
NRAS/KRAS (ratio of KD value with respect to NRAS to KD value with respect to KRAS) [1]: B (a compound having 3 or more and less than 10 is denoted as B) | HRAS/KRAS (ratio of KD value with respect to HRAS to KD value with respect to KRAS) [2]: B (a compound having 3 or more and less than 10 is denoted as B)

CCCN1C(=O)CN(C)C(=O)CN(C)C(=O)[C@H]([C@@H](C)CC)NC(=O)[C@H](CC(C)C)N(C)C(=O)C[C@@H](C(=O)N2CCCCC2)N(C)C(=O)[C@H](C2CCCC2)N(C)C(=O)C2(CCCC2)NC(=O)[C@@H]2CCCN2C(=O)[C@H](CCc2ccc(C(F)(F)F)c(Cl)c2)NC(=O)CN(C)C(=O)[C@@H]1Cc1ccc(C(F)(F)F)cc1 [PP0171] ([NMeL]I[Sar][Sar][NPrPhe(4-CF3)][Sar][hPhe(3-Cl-4-CF3)]P[Ac5c][NMeGly(cPent)][NMeD]-Piperidide; lactam N-11)
NRAS/KRAS (ratio of KD for GDP-bound NRAS wild-type to KD for KRAS) ([1]; KD ratio NRAS/KRAS): B (a compound having 3 or more and less than 10 is denoted as B) | HRAS/KRAS (ratio of KD for GDP-bound HRAS wild-type to KD for KRAS) ([2]; KD ratio HRAS/KRAS): C (A compound having a KD ratio of 0.1 or more and less than 3 is denoted as C)

CCC[C@H]1C(=O)N[C@@H]([C@@H](C)CC)C(=O)N(C)CC(=O)N(C)[C@H]2C/C=C\CCN(C2=O)[C@@H](Cc2ccc(C)cc2)C(=O)N(C)CC(=O)N[C@@H](CCc2cc(F)c(C(F)(F)F)c(F)c2)C(=O)N2C[C@H](C)C[C@H]2C(=O)NC2(CCC2)C(=O)N(C)[C@@H](C2CCCC2)C(=O)N(C)[C@H](C(=O)N(C)CC)CC(=O)N1C [PP1862]
NRAS/KRAS (ratio of KD value for NRAS to KD value for KRAS) [1]: A (a compound having 10 or more and less than 20 is denoted as A) | HRAS/KRAS (ratio of KD value for HRAS to KD value for KRAS) [2]: A (a compound having 10 or more and less than 20 is denoted as A)

CCO[C@@H]1C[C@H]2C(=O)N(C)C3(CCC3)C(=O)N(C)[C@@H](C3CCCC3)C(=O)N(C)[C@H](C(=O)N(C)C)CC(=O)N(C)[C@@H](CC3CC3)C(=O)N[C@@H]([C@@H](C)CC)C(=O)N(C)CC(=O)N(C)[C@H]3C/C=C\CCN(C3=O)[C@@H](Cc3ccc(C)cc3)C(=O)N(C)CC(=O)N[C@@H](CCc3cc(F)c(C(F)(F)F)c(F)c3)C(=O)N2C1 [PP1795]
NRAS/KRAS (ratio of KD value for NRAS to KD value for KRAS) [1]: A (a compound having 10 or more and less than 20 is denoted as A) | HRAS/KRAS (ratio of KD value for HRAS to KD value for KRAS) [2]: B (a compound having 3 or more and less than 10 is denoted as B)

CCO[C@@H]1C[C@H]2C(=O)NC3(CCC3)C(=O)N(C)[C@@H](C3CCCC3)C(=O)N(C)[C@H](C(=O)N(C)C)CC(=O)N(C)[C@@H](CC)C(=O)N[C@@H]([C@@H](C)CC)C(=O)N(C)CC(=O)N(C)[C@H]3C[C@H]4C[C@H]4CN(C3=O)[C@@H](Cc3ccc(C(F)(F)F)cc3)C(=O)N(C)CC(=O)N[C@@H](CCc3cc(F)c(C(F)(F)F)c(F)c3)C(=O)N2C1 [PP0830]
NRAS/KRAS (ratio of KD value with respect to NRAS to KD value with respect to KRAS) [1]: C (A compound having a KD ratio of 0.1 or more and less than 3 is denoted as C) | HRAS/KRAS (ratio of KD value with respect to HRAS to KD value with respect to KRAS) [2]: C (A compound having a KD ratio of 0.1 or more and less than 3 is denoted as C)
